Test: gradient 5% acetonitrile 3 min, to 50% in 2 min, to 85% in 15 min, held 3 min, 100 µL/min
Settings: column: Zorbax Extend-C18 2.1 x 50 mm; eluents: water / acetonitrile, 0.1% formic acid
In short: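 Each retention time is based on an adduct peak selected computationally and verified by manual inspection. Measurements used HPLC–quadrupole time-of-flight mass spectrometry in positive and negative ionization mode on mixtures of ~100 pure standards. Chromatography ran on a Zorbax Extend-C18 column (2.1 × 50 mm, 1.8 μm) at 100 μL/min with water and acetonitrile, each containing 0.1% formic acid, and dead and dwell volumes of 40 μL and 900 μL.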

Compound | RP-LC retention time
Cn1cc(CN2CCC(C(=O)NCCN3CCOCC3)CC2)c2cc(Cl)ccc21 | 568 s
CN1CC(=O)N(CC(=O)N2CCN(c3cccc(Cl)c3)CC2)c2ccccc2C1=O | 747 s
Cc1ccc(C)c(S(=O)(=O)N2CCC(n3cnnc3C(C)C)CC2)c1 | 768 s
Cc1ccn2c(Nc3ccc4c(c3)OCO4)c(-c3ccc(N(C)C)cc3)nc2c1 | 734 s
C[C@@]12N[C@@H](Cc3ccccc31)c1ccccc12 | 655 s
O=C(CCNc1c(-c2cccc(F)c2)nc2cnccn12)NCc1ccco1 | 680 s
Cc1noc(C)c1S(=O)(=O)NCC(c1cccnc1)c1cn(C)c2ccccc12 (stereo not given) | 700 s
O=C(CSc1nnc(CNC(=O)c2ccc(F)cc2)o1)NCc1ccco1 | 647 s
CC1(C(=O)NC2CCCCC2)Cn2c(ccc2-c2ccco2)C(=O)N1Cc1ccccn1 (stereo not given) | 766 s
Cc1cccc(NC(=O)N2CCCC(C)(C(=O)NCc3ccccc3C)C2)c1 (stereo not given) | 959 s
CC(=O)c1cccc(NC(=O)CN2C(=O)NC3(CCC(C)CC3)C2=O)c1 (stereo not given) | 746 s
O=C(Nc1ccc(F)c(F)c1)C1CCN(C(=O)c2ncn3c2COC(c2ccccc2)C3)CC1 (stereo not given) | 819 s
CCc1c(C(=O)O)nnn1Cc1cccc(OC)c1 | 687 s
O=C(O)c1cn(-c2cccc(F)c2)nn1 | 652 s
O=C(CSc1ccc(S(=O)(=O)C2CCCCC2)nn1)NCc1cc(F)cc(F)c1 | 833 s
CCCN1CCN(C(=O)c2cccn2Cc2noc(-c3ccccc3)n2)CC1 | 653 s
Cc1cc2nn(CC(=O)Nc3ccccc3C)c(=O)n2c(-c2ccc(F)cc2)n1 | 796 s
COc1ccc(-c2ccnc3nc(Cc4ccc(F)cc4)nn23)cc1OC | 851 s
Cc1ccc(-c2cc3c(=O)n(Cc4noc(CN5CCN(C)CC5)n4)ccn3n2)cc1 | 659 s
O=C(Nc1nccnc1C(=O)NC1CC1)c1ccccc1 | 732 s
Cc1nnsc1C(=O)N1CCc2nc(NC(=O)C3CC3)sc2C1 | 630 s

Compound | RP-LC retention time
O=C(NCCn1nc(-c2cccs2)ccc1=O)c1cc(-c2cccs2)[nH]n1 | 573 s
Cc1c(Cl)cccc1S(=O)(=O)N1CCCC1c1nc(-c2ccc(F)cc2)no1 (stereo not given) | 1220 s
CCCn1cc(CCNS(=O)(=O)c2ccc(F)cc2F)c2cccnc21 | 848 s
CCc1ccc(CN2C(=O)CN(S(C)(=O)=O)CC2(C)C(=O)NCc2ccc(C)cc2)cc1 (stereo not given) | 963 s
O=c1n(Cc2ccc(F)cc2)nc2ccc(S(=O)(=O)N3CCCC3)cn12 | 855 s
Cc1ccc(Cn2cccc(C(=O)Nc3nc4c(C)cccc4s3)c2=O)cc1 | 1240 s
Cc1cnc(C(=O)N2CC(n3cc(COc4ccncc4)nn3)C2)cn1 | 553 s
Cc1cc(C)cc(C(=O)NCc2ccc3c(c2)CCCN3C(=O)C2CCC2)c1 | 981 s
COC(=O)c1ccccc1OCc1cc(=O)oc2ccc(C)cc12 | 983 s
CCCc1c(C(=O)O)nnn1-c1cccc(Cl)c1 | 783 s
CN(C)C1(CC2CC2)CCN(C(=O)C2CC2)CC1 | 558 s
COC(=O)N1CCN(CCNC(=O)Cc2ccc(SC(C)C)cc2)CC1 | 584 s
Cn1cccc1C(=O)C(=O)NCc1ccc2c(c1)OCO2 | 793 s
CCc1nc(-c2csc(S(=O)(=O)N3CCCC(C(=O)Nc4c(C)cccc4C)C3)c2)no1 (stereo not given) | 1010 s
CCn1c(=O)c(C)nc2cc(-c3noc(-c4ccc5c(c4)OCO5)n3)ccc21 | 1030 s
CCN1CCN(C(=O)c2cn(-c3ccc(-c4nc(C(C)(C)C)no4)cn3)cn2)CC1 | 653 s
COc1cccc(OCC2c3ccsc3CCN2C(=O)CN(CC2CCCO2)C(C)=O)c1 (stereo not given) | 788 s
Cc1cc(SCC(=O)N2CCCc3ccccc32)nc(C)n1 | 722 s
Cn1nc(-c2nc(C3CC3)no2)c2c1CCN(C(=O)Nc1ccccc1)C2 | 809 s
Cc1ccccc1Cn1cc(-c2ccncc2)cc1C(=O)NCC1CCCO1 (stereo not given) | 667 s
COc1ccc(N2CCN(C(=O)CC(C)S(=O)(=O)c3ccc4c(c3)CCN4C(C)=O)CC2)cc1 (stereo not given) | 754 s

Compound | RP-LC retention time
Cc1nn(C)c2nc(OC(C)C(=O)NCc3cccs3)cc(-c3ccccc3)c12 (stereo not given) | 1040 s
O=C(O[C@@H]1CN2CCC1CC2)N1CCc2ccccc2C1c1ccccc1 (stereo not given in full) | 757 s
Cc1ccc(C2=NC(c3ccc([N+](=O)[O-])cc3)SC(N3CCOCC3)=N2)cc1 (stereo not given) | 642 s
COc1ccc(CCNC(=O)NCCS(=O)(=O)c2c(C)n(C)c3ccccc23)cc1 | 740 s
CCN(C(=O)c1cccc(F)c1)c1nc(-c2ccccc2)cs1 | 1230 s
COc1ccc(C(=O)N2CCC3(CC2)NC(=O)c2cccc(Cl)c2N3)cc1 | 738 s
O=c1ccn(-c2cccc(F)c2)nc1-c1nc(-c2ccc(OCc3ccccc3)cc2)no1 | 1070 s
O=C(O)c1cccc(Nc2c(-c3cccc(Br)c3)nc3cnccn23)c1 | 748 s
COc1ccc(NC(=O)N2CCN(c3cnn4c(C)nnc4c3)CC2)cc1 | 594 s
CC(C)CCC(=O)N1CCN(c2nc(CN3CCOCC3)cs2)CC1 | 624 s
O=S(=O)(c1ccccc1)N1CC(c2nnc(-c3ccncc3)o2)C2(CCOCC2)C1 (stereo not given) | 660 s
Cc1ccc(NC(=O)N2CCc3nc(-c4ccc(F)cc4)ncc3C2)c(Cl)c1 | 1080 s
CCOc1ccc(NC(=O)Cn2c(N)nc(CC)cc2=O)cc1 | 630 s
Cc1c(C(=O)O)nnn1-c1ccc2c(c1)CCC2 | 759 s
COC(=O)CCNC(=O)C1c2ccccc2C(=O)N(C2CCCC2)C12CCCCC2 (stereo not given) | 903 s
O=C(CCC1CCN(S(=O)(=O)c2ccccc2)CC1)NCc1ccco1 | 776 s
COc1ccccc1NC(=O)Cn1nc2c(Oc3ccccc3Cl)nccn2c1=O | 908 s
COc1ccc(OC)c(NC(=O)N2CCc3c(c(C(=O)N4CCCC4)nn3C)C2)c1 | 718 s
O=S(=O)(c1ccccc1)N1CCC(N2C[C@H](Oc3ccccc3)[C@@H]2c2ccncc2)CC1 | 733 s
CCc1ccccc1NC(=O)Cn1nc2c(Oc3cc(C)cc(C)c3)nccn2c1=O | 946 s

Second part, the compound after the results:

RP-LC retention time | Compound
658 s | COc1ccc(NC(=O)N2CCN(Cc3cn(C)c4ccccc34)CC2)cc1
718 s | CCCNc1cc(N2CCC(CCC(=O)NCc3ccc(Cl)cc3)CC2)ncn1
930 s | CCC(C)NC(=O)C1CCCN(c2ncccc2-c2noc(C3CCC3)n2)C1 (stereo not given)
886 s | Cc1[nH]c(C(=O)N2CCC(CC(=O)NC3CCCCCC3)CC2)c(C)c1C(=O)OC(C)C
574 s | COc1ccc(CCNC(=O)CSc2nccn2Cc2ccco2)cc1OC
992 s | COc1ccccc1-c1nnc(-c2ccc(Cl)c(S(=O)(=O)N3CCCC3)c2)o1
1080 s | Cc1oc(C(C)C)nc1C(=O)NCc1cccc(C(F)(F)F)c1
561 s | CCn1cnnc1C1CCN(C(=O)c2sccc2C)CC1
701 s | Cn1cc(-c2ccccc2)cc1C(=O)N1CCN(C2CCCCC2)CC1
1120 s | CCOc1ccc2cccc(NC(=O)Cc3cccc(OC)c3)c2n1
934 s | COC(=O)c1ccccc1NC1=NS(=O)(=O)c2ccccc21
644 s | CCc1c(C2CCN(C(=O)c3ccn(CC)n3)CC2)noc1N
690 s | CC(C)CCN1CCC(N2CCN(S(=O)(=O)c3ccc(F)cc3F)CC2)C1=O (stereo not given)
863 s | Cc1cc(=O)n(CC(=O)Nc2ccccc2Cl)c(N2CCOCC2)n1
752 s | COCCNC(=O)CN1c2ccccc2NC2=C(C(=O)CC(C)(C)C2)C1c1ccc(F)cc1 (stereo not given)
610 s | O=C(NCCN1CCN(S(=O)(=O)c2ccc(C(F)(F)F)cc2)CC1)c1ccsc1
749 s | CCC(C(=O)NCCCOC)n1c2ccccc2c2cnn(C)c(=O)c21 (stereo not given)
607 s | Cn1c(C(=O)N2CCN(c3ccccn3)CC2)cc2c(=O)oc3ccccc3c21
685 s | CNc1nc(N2CCCCCC2)nc(-n2cnc(SC)n2)n1
862 s | Cc1ccc2c(c1)N(S(C)(=O)=O)CCC(C(=O)N1CCCCC1)O2 (stereo not given)
723 s | CCc1noc(NC(C)=O)c1-c1ccc(C)c(S(=O)(=O)N2CCN(c3ccccc3F)CC2)c1
583 s | O=C(CNC(=O)c1ccc(=O)[nH]c1)NCCOc1ccc(F)cc1
650 s | CCCC(=O)Nc1ccc(CCc2nc3ccc(C(=O)NC4CCCC4)cc3[nH]2)cc1
787 s | O=C(Cn1nc(Cc2ccncc2)c2ccccc2c1=O)N1CCOCC1
924 s | CCc1nc(-c2ccc(-c3noc(CNC(=O)c4ccco4)n3)cc2)cs1
826 s | CC(=O)c1cccc(NC(=O)c2cn(C)cc3c(=O)n(-c4ccccc4)nc2-3)c1
847 s | CCn1c(N2CCCC(C(=O)NCCCN3CCCc4ccccc43)C2)cc(=O)n(C)c1=O (stereo not given)
1180 s | Cc1ccc(OCc2nc(-c3ccc(N4CCSCC4)nc3)no2)cc1

Source: the METLIN SMRT retention time set (Domingo-Almenara et al. 2019)
